{"source": "EPA's ToxValDB 9.5 (doi:10.2903/j.efsa.2010.1624)", "key": {"Typhlodromus pyri": {"system": "Typhlodromus pyri", "settings": "not reported"}, "Apis mellifera": {"system": "Apis mellifera", "settings": "acute; duration: 48 hours; oral; unspecified; mortality"}, "Canidae": {"system": "Canidae", "settings": "subchronic; duration: 90 days; oral; Dog Other; histopathology: nonneoplastic"}, "Anas platyrhynchos": {"system": "Anas platyrhynchos", "settings": "oral, mortality"}, "Mus musculus": {"system": "Mus musculus", "settings": "acute; oral; mortality"}, "Plant": {"system": "Plant", "settings": "chronic/long-term; development"}, "Daphnia magna": {"system": "Daphnia magna", "settings": "chronic/long-term; duration: 21 days"}, "Folsomia candida": {"system": "Folsomia candida", "settings": "chronic/long-term; reproduction"}, "[1]": {"settings": "reproduction developmental, reproduction"}}, "data": [{"smiles": "CC(C)N1C(=O)N(c2ccccc2)CSC1=NC(C)(C)C", "note": "[Buprofezin]", "values": [{"measurement": "LD50", "setting": "Rattus norvegicus; acute, oral, mortality", "value": "> 2000", "unit": "mg/kg-day"}, {"measurement": "NOAEL", "setting": "Rattus norvegicus; chronic, duration: 2 years, histopathology: nonneoplastic", "value": 1, "unit": "mg/kg-day"}, {"measurement": "NOAEL", "setting": "Rattus norvegicus; developmental, development", "value": 50, "unit": "mg/kg-day"}, {"measurement": "NOEL", "setting": "Rattus norvegicus; [1]", "value": 66, "unit": "mg/kg-day"}, {"measurement": "LC50", "setting": "Oncorhynchus mykiss; acute, duration: 96 hours, mortality", "value": 0.33, "unit": "µg/mL"}, {"measurement": "NOEC", "setting": "Oncorhynchus mykiss; chronic/long-term, growth", "value": 0.052, "unit": "mg/L"}, {"measurement": "LEL", "setting": "Typhlodromus pyri; mortality", "value": 3000, "unit": "g/ha"}, {"measurement": "LEL", "setting": "Typhlodromus pyri; reproduction", "value": 3000, "unit": "g/ha"}, {"measurement": "LD50", "setting": "Apis mellifera", "value": "> 164", "unit": "µg/piece"}, {"measurement": "LC50", "setting": "Tagia sp.; acute, duration: 14 days, mortality", "value": "> 1000", "unit": "mg/kg"}, {"measurement": "NOEC", "setting": "Tagia sp.; chronic/long-term, reproduction", "value": 500, "unit": "mg/kg"}, {"measurement": "NOAEL", "setting": "Canidae", "value": 10, "unit": "mg/kg-day"}, {"measurement": "LD50", "setting": "Anas platyrhynchos; acute, unspecified", "value": "> 2000", "unit": "mg/kg-day"}, {"measurement": "LC50", "setting": "Anas platyrhynchos; short-term, feed", "value": "> 1310", "unit": "mg/kg-day"}, {"measurement": "LC50", "setting": "Colinus virginianus; acute, oral, diet, mortality", "value": "> 1310", "unit": "mg/kg-day"}, {"measurement": "LD50", "setting": "Colinus virginianus; acute, oral, mortality", "value": "> 2000", "unit": "mg/kg-day"}, {"measurement": "NOEC", "setting": "Colinus virginianus; developmental, development", "value": 48, "unit": "mg/kg-day"}, {"measurement": "NOEC", "setting": "Colinus virginianus; [1]", "value": 198, "unit": "mg/kg-day"}, {"measurement": "LD50", "setting": "Mus musculus", "value": "> 2000", "unit": "mg/kg-day"}, {"measurement": "LEL", "setting": "Plant", "value": "> 100", "unit": "g/ha"}, {"measurement": "NOEC", "setting": "Daphnia magna", "value": 0.08, "unit": "mg/L"}, {"measurement": "NOEC", "setting": "Folsomia candida", "value": 62.5, "unit": "mg/kg"}]}]}
